Assay results: patent US7125883B1, “Integrin receptor ligands” (Abbott GmbH & Co. KG, priority 1999, dated 2006)

These compounds were tested against integrin αvβ3 (Homo sapiens, UniProt P05106+P06756) (assay: Integrin αvβ3 assay (competition with vitronectin for binding to solid-phase integrin αvβ3)). Settings: competition between human vitronectin and test substance for binding to integrin αvβ3 bound to a solid phase; only a ranking in words is given.

IC50 values (concentration of the ligand at which 50% of the ligand is displaced)	Compound
best result	Cc1cn(CC(CC(=O)O)NC(=O)OCc2ccccc2)c(=O)nc1NCc1ccc(CNc2ccccn2)cc1.O=C(O)C(F)(F)F (stereo not shown) [Example I-54]
best result	O=C(O)C(F)(F)F.O=C(O)CC(Cn1cc(C2CCOCC2)c(NCCC(=O)Nc2ncc[nH]2)nc1=O)NC(=O)OCc1ccccc1 (stereo not shown) [Example I-61, 2-[(3-{[1-(2-{[(Benzyloxy)carbonyl]amino}-3-carboxy-propyl)-2-oxo-5-tetrahydro-2H-pyran-4-yl-1,2-dihydropyrimidin-4-yl]amino}propanoyl)amino]-1H-imidazol-1-ium trifluoroacetate]
best result	O=C(O)C(F)(F)F.O=C(O)CC(Cn1cc(-c2ccccc2)c(NCCC(=O)Nc2ncc[nH]2)nc1=O)NC(=O)OCc1ccccc1 (stereo not shown) [Example I-63, 2-[(3-{[1-(2-{[(Benzyloxy)carbonyl]amino}-3-carboxy-propyl)-2-oxo-5-phenyl-1,2-dihydropyrimidin-4-yl]amino}-propanoyl)amino]-1H-imidazol-1-ium trifluoroacetate]
best result	CCCc1cn(C[C@H](NC(=O)OCc2ccccc2)C(=O)O)c(=O)nc1N1CCC(CNc2ccccn2)CC1.O=C(O)C(F)(F)F [Example I-64, 2-[({1-[1-((2S)-{[(Benzyloxy)carbonyl]amino}-2-carboxy-ethyl)-2-oxo-5-propyl-1,2-dihydropyrimidin-4-yl]-piperidin-4-yl}methyl)amino]pyridinium trifluoroacetate]
